Read-outs that look alike come from different tables or passages of the source.
Assay: Serum concentrations of ICI 182780 by radioimmunoassay (pharmacokinetics of monthly i.m. depot)
Assay type: in vivo, human
Details: for Cmax: human, serum
Description: Bridsh Journal of Cancer (1996) 74, 300-308 ? […] The agent was administered as a monthly depot intramuscular injection. […] The study was approved by the ethics committees of each clinical centre. Patients were eligible for the study if they were post- menopausal and age less than 81 years, with histologically verified breast cancer. […] Patients were excluded if they had serious intercurrent disease, a WHO performance status of greater than 2, and a life expectancy of less than 3 months or had received previous cytotoxic chemotherapy for advanced breast cancer. […] Patients 5-19 received 250 mg month-1 i.m. from the outset. […] Tumour response to therapy was evaluated according to UICC criteria (Hayward et al., 1977). To qualify for the 'no change' category, tumour growth had to stabilise for more than 6 months (Howell et al., 1988; Robertson et al., 1989). Body weight was recorded at each monthly review in the majority of patients. […] The procedure was applied after solid base clean up of a diethyl ether/hexane extract of serum. The study limit of quantification was 0.68 ng ml-'. […] Gonadotrophins follicle-stimulating hormone and lutenising hormone (FSH and LH) and SHBG were measured by RIA in the Regional Radioimmunoassay Laboratory of the University Hospital of South Manchester. Prolactin was measured by immunoradiometric assay using reagents supplied by Netria. Total cholesterol levels were determined enzymatically using a commercially available reagent (Diamed, Switzerland). Triglyceride levels were determined by the glyceryl phosphate oxidase-peroxidase-antiperox- idase method using a commercially available kit (Boehringer Mannheim, Germany). High-density lipoprotein (HDL) cholesterol levels were measured after pretreatment of the serum samples with buffered magnesium phosphotungstate, which selectively precipitates low-density lipoprotein (LDL) cholesterol, very low-density lipoprotein (VLDL) cholesterol and chylomicrons, leaving HDL cholesterol in the super- natant. Serum levels of LDL cholesterol were calculated using the Friedewald equation (Friedewald et al., 1972). Endometrial assessment Endometrial thickness was measured in transverse section by transabdominal ultrasound using a Siemens Sonoline SL2 with a 3.5 MHz sector probe. Baseline and repeat scans at 3-6 monthly intervals were performed in five patients. […] Pharmacokinectic data were analysed using para- metric statistics. Data relating to body weight, serum gonadotrophin, SHBG and lipid levels were analysed using non-parametric statistics. The null hypothesis was rejected at a probability level of P<0.05. […] However, samples were not available between day 2 and day 8.

[1] = 250 mg monthly i.m., first month
[2] = 250 mg monthly i.m., sixth month
[3] = patient 5 (partial response), 250 mg
[4] = patient 8 (partial response), 250 mg
[5] = patient 10 (partial response), 250 mg
[6] = patient 13 (progressive disease), 250 mg
[7] = patient 14 (partial response), 250 mg
[8] = patient 16 (partial response), 250 mg

AUC, first month [1]: 140.5 ng·days/mL | Mean end-of-month concentration, first month [1]: 3.1 ng/mL | AUC, sixth month [2]: 206.8 ng·days/mL | Mean end-of-month concentration, sixth month [2]: 5.6 ng/mL | Difference in Cmax and AUC, partial response vs no change patients (after 6 months of treatment): no significant difference | Increase in AUC (after 6 months vs month 1): 50% | Increase in mean end of month drug levels (after 6 months vs month 1): 80% | Cmax (female, im, 250 mg, 250 mg monthly i.m., first month, read-out: Cmax, first month (mean)): 10.5 ng/mL | Cmax (female, im, 250 mg, 250 mg monthly i.m., sixth month, read-out: Cmax, sixth month (mean)): 12.6 ng/mL | Cmax (female, intramuscular, no change patients, read-out: Median Cmax at month 6): 12.8 ng/mL | Cmax (female, intramuscular, no change patients, read-out: Median Cmax on entry): 9.3 ng/mL | Cmax (female, intramuscular, partial response patients, read-out: Median Cmax at month 6): 11 ng/mL | Cmax (female, intramuscular, partial response patients, read-out: Median Cmax on entry): 7.7 ng/mL | Cmax (female, intramuscular, progressive disease patients, read-out: Median Cmax on entry): 5.6 ng/mL | Release of drug from slow release formulation (following both the 100 mg and 250 mg doses): continuous release of drug | Cmax (intramuscular, 100 mg, patient 1 (progressive disease), 100 mg dose at entry, read-out: Cmax on entry): 4.4 ng/mL | Cmax (intramuscular, 100 mg, patient 2 (no change), 100 mg dose at entry, read-out: Cmax on entry): 1.8 ng/mL | Cmax (intramuscular, 100 mg, patient 3 (partial response), 100 mg dose at entry, read-out: Cmax on entry): 2.9 ng/mL | Cmax (intramuscular, 100 mg, patient 4 (progressive disease), 100 mg dose at entry, read-out: Cmax on entry): 1.6 ng/mL | Cmax (intramuscular, 250 mg, patient 2 (no change), 250 mg, read-out: Cmax at month 6): 7.5 ng/mL | Cmax (intramuscular, 250 mg, patient 3 (partial response), 250 mg, read-out: Cmax at month 6): 9.9 ng/mL | Cmax (intramuscular, 250 mg, patient 5 (partial response), 250 mg, read-out: Cmax at month 6): 17.6 ng/mL | Cmax (intramuscular, 250 mg, patient 5 (partial response), 250 mg, read-out: Cmax on entry): 17.4 ng/mL | Cmax (intramuscular, 250 mg, patient 6 (partial response), 250 mg, read-out: Cmax on entry): 7.7 ng/mL | Cmax (intramuscular, 250 mg, patient 7 (progressive disease), 250 mg, read-out: Cmax on entry): 5.5 ng/mL | Cmax (intramuscular, 250 mg, patient 8 (partial response), 250 mg, read-out: Cmax at month 6): 10 ng/mL | Cmax (intramuscular, 250 mg, patient 8 (partial response), 250 mg, read-out: Cmax on entry): 5.9 ng/mL | Cmax (intramuscular, 250 mg, patient 9 (progressive disease), 250 mg, read-out: Cmax on entry): 9.7 ng/mL | Cmax (intramuscular, 250 mg, patient 10 (partial response), 250 mg, read-out: Cmax at month 6): 9.1 ng/mL | Cmax (intramuscular, 250 mg, patient 10 (partial response), 250 mg, read-out: Cmax on entry): 14.8 ng/mL | Cmax (intramuscular, 250 mg, patient 11 (progressive disease), 250 mg, read-out: Cmax on entry): 29.9 ng/mL | Cmax (intramuscular, 250 mg, patient 12 (no change), 250 mg, read-out: Cmax at month 6): 12.2 ng/mL | Cmax (intramuscular, 250 mg, patient 12 (no change), 250 mg, read-out: Cmax on entry): 7.2 ng/mL | Cmax (intramuscular, 250 mg, patient 13 (progressive disease), 250 mg, read-out: Cmax at month 6): 15.8 ng/mL | Cmax (intramuscular, 250 mg, patient 13 (progressive disease), 250 mg, read-out: Cmax on entry): 5.6 ng/mL | Cmax (intramuscular, 250 mg, patient 14 (partial response), 250 mg, read-out: Cmax at month 6): 13.5 ng/mL | Cmax (intramuscular, 250 mg, patient 14 (partial response), 250 mg, read-out: Cmax on entry): 9.1 ng/mL | Cmax (intramuscular, 250 mg, patient 15 (no change), 250 mg, read-out: Cmax at month 6): 15.8 ng/mL | Cmax (intramuscular, 250 mg, patient 15 (no change), 250 mg, read-out: Cmax on entry): 9 ng/mL | Cmax (intramuscular, 250 mg, patient 16 (partial response), 250 mg, read-out: Cmax at month 6): 12 ng/mL | Cmax (intramuscular, 250 mg, patient 16 (partial response), 250 mg, read-out: Cmax on entry): 4.4 ng/mL | Cmax (intramuscular, 250 mg, patient 17 (no change), 250 mg, read-out: Cmax at month 6): 14.9 ng/mL | Cmax (intramuscular, 250 mg, patient 17 (no change), 250 mg, read-out: Cmax on entry): 9.5 ng/mL | Cmax (intramuscular, 250 mg, patient 18 (no change), 250 mg, read-out: Cmax at month 6): 10.2 ng/mL | Cmax (intramuscular, 250 mg, patient 18 (no change), 250 mg, read-out: Cmax on entry): 10.3 ng/mL | Cmax (intramuscular, 250 mg, patient 19 (no change), 250 mg, read-out: Cmax at month 6): 17.2 ng/mL | Cmax (intramuscular, 250 mg, patient 19 (no change), 250 mg, read-out: Cmax on entry): 11 ng/mL | Difference in median Cmax and AUC between responders and non-responders (in vivo): no significant difference | Increase in AUC on multiple dosing (month 6 vs month 1, 250 mg): 1.5 fold | Increase in Cmax on multiple dosing (month 6 vs month 1, 250 mg): 1.2 fold | Median AUC at month 6 (no change patients): 190.9 ng·days/mL | Median AUC on entry (no change patients): 131.6 ng·days/mL | Median AUC at month 6 (partial response patients): 191.0 ng·days/mL | Median AUC on entry (partial response patients): 118.7 ng·days/mL | AUC at month 6 (patient 2 (no change), 250 mg): 135.8 ng·days/mL | AUC at month 6 (patient 3 (partial response), 250 mg): 139.5 ng·days/mL | AUC at month 6 [3]: 203.0 ng·days/mL | AUC on entry [3]: 188.4 ng·days/mL | AUC on entry (patient 6 (partial response), 250 mg): 118.3 ng·days/mL | AUC on entry (patient 7 (progressive disease), 250 mg): 105.7 ng·days/mL | AUC at month 6 [4]: 175.2 ng·days/mL | AUC on entry [4]: 118.7 ng·days/mL | AUC on entry (patient 9 (progressive disease), 250 mg): 138.2 ng·days/mL | AUC at month 6 [5]: 191.7 ng·days/mL | AUC on entry [5]: 206.6 ng·days/mL | AUC on entry (patient 11 (progressive disease), 250 mg): 289.3 ng·days/mL | AUC at month 6 (patient 12 (no change), 250 mg): 179.3 ng·days/mL | AUC on entry (patient 12 (no change), 250 mg): 143.6 ng·days/mL | AUC at month 6 [6]: 243.7 ng·days/mL | AUC on entry [6]: 36.7 ng·days/mL | AUC at month 6 [7]: 266.0 ng·days/mL | AUC on entry [7]: 134.6 ng·days/mL | AUC at month 6 (patient 15 (no change), 250 mg): 201.7 ng·days/mL | AUC on entry (patient 15 (no change), 250 mg): 107.8 ng·days/mL | AUC at month 6 [8]: 190.8 ng·days/mL | AUC on entry [8]: 72.8 ng·days/mL | AUC at month 6 (patient 17 (no change), 250 mg): 297.6 ng·days/mL | AUC on entry (patient 17 (no change), 250 mg): 125.5 ng·days/mL | AUC at month 6 (patient 18 (no change), 250 mg): 156.1 ng·days/mL | AUC on entry (patient 18 (no change), 250 mg): 183.2 ng·days/mL | AUC at month 6 (patient 19 (no change), 250 mg): 308.0 ng·days/mL | AUC on entry (patient 19 (no change), 250 mg): 137.8 ng·days/mL | Median AUC on entry (progressive disease patients): 79.4 ng·days/mL
SMILES: C[C@]12CC[C@@H]3c4ccc(O)cc4C[C@@H](CCCCCCCCC[S+]([O-])CCCC(F)(F)C(F)(F)F)[C@H]3[C@@H]1CC[C@@H]2O (stereo partly drawn) [ICI 182780, 7a-[9(4,4,5,5,pentafluoropentyl-sulphinyl)nonyl]oestra-1 ,3,5,(10)-triene-3,17,B-diol]
Serum level at day 28 relative to threshold (monthly depot i.m., day 28): above the projected therapeutic threshold

Source: PMC2074590 (British Journal of Cancer, 1996)
